Read-outs that look alike come from different tables or passages of the source.
Legend:
Kinetic solubility = assay type: physicochemical; settings: Universal Aqueous buffer pH 7.4
Protocol: Kinetic Solubility: 396 μL of Universal Aqueous buffer (pH 7.4) was added to 4 μL of a 50 mM DMSO stock solution of each compound. Wells were agitated for 4 hours at 20° C. and then filtered. The compound was then diluted to serial concentrations with DMSO, followed by serial dilutions with ACN:H2O (1:1) prior to liquid chromatography-mass spectroscopy (LCMS) analysis. The calculated concentration (μM) of soluble compound was determined in reference to a standard curve.

[1] = Mouse liver microsome stability; assay type: in vitro ADME
Protocol: (§1) Mouse/Human liver microsome stability: A liver microsome solution (197.5 μL, 1.27 mg/ml protein concentration) (Sekisui Xenotech, Kansas City, KS) was aliquoted into 1.1 ml tubes, to which 2.5 μL of positive control and compound stock solutions (100 μM in DMSO) were added. The tubes were vortexed gently, pre-incubated for 5 min at 37° C., then 50 μL of 5 mM NADPH or LM buffer (no NADPH buffer) was added into the tubes. For analysis, an aliquot of 15 μL was removed from each tube at 0, 5, 15, 30 and 60 min (without-NADPH reaction: 0, 30 and 60 min) and quenched with 300 μL of 25 ng/ml propranolol in acetonitrile. Samples were vigorously vortexed for 1 min and then centrifuged at 4,000 rpm for 15 min at 4° C. 100 μL of supernatant from each sample was transferred to 0.65 ml tubes for LCMS analysis. The amount of parent compound was determined on the basis of the peak area ratio (compound area to IS area) for each time point. Clearance rates were calculated by the equation: […]

[2] = Human liver microsome stability; assay type: in vitro ADME
Protocol: as §1

in vitro = in vitro ADME, mouse
Protocol: Protein Binding in Plasma: The donor side of dialysis inserts were filled with 200 μL plasma (human and mouse; source BioDuro, San Diego, California, United States of America) containing 5 μM drug and 0.5% of DMSO and the receiver side of the dialysis inserts was filled with 350 μL of PBS buffer (100 mM, pH 7.4). The prepared dialysis apparatus was placed in a shaker (37° C., 100 rpm) for 5 hours. Two tubes with plasma containing 5 μM experimental compound were also prepared for stability test: one tube was placed in the […] for 5 hours and the other tube was placed in shaker ([…], 100 rpm) for 5 hours. Samples were collected from the donor and receiver sides of each dialysis insert. The same volume of blank plasma was added to buffer samples and blank buffer to plasma samples to make sure all sample mixtures contain 50% plasma and 50% buffer. 50 μL of each sample was mixed with 300 μL of acetonitrile containing 25 ng/ml internal standard (propranolol). All samples were vortexed for 1 minute and then centrifuged at 4000 rpm, 4° C. for 15 min. 100 μL of the supernatant was transferred to 0.65 ml tube for LCMS analysis. The amount of compound was determined on the basis of the peak area ratio (compound area to internal standard area) for the two sides, and protein binding is determined using the following equations: % Bound=100×([Area Ratio of Donor]5h*5−[Area Ratio of Receiver]5h)/([Area Ratio of Donor]5h*5). The percentage remaining at 37° C. after 5 hours was calculated on the basis of the amount measured at 0° C. after 5 hours.

[3] = tested on: HIV-1 IIIB A17 variant (Y181C/K103N); test: HIV inhibition assay in TZM-bl cells, A17 variant; assay type: cell-based
Method in brief: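 TZM-bl cells with 15 μg/mL DEAE-dextran were infected with H9-grown HIV-1 IIIB, wild-type or A17 (Y181C/K103N), in the presence of compound (0.005% or 0.05% DMSO) for 48 h at 37 °C. Luciferase RLU was read after lysis. Toxicity was measured in parallel by CellTiter-Blue fluorescence.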

[4] = target: T1, HIV I reverse transcriptase (Human immunodeficiency virus type 1 group M subtype B, UniProt P03366); test: Reverse transcriptase inhibition assay (Roche kit, ELISA); assay type: biochemical
T1 construct: purchased Roche
Protocol: NNRTI assay methods: Inhibition of HIV I reverse transcriptase was assessed via a kit from Roche (Indianapolis-Marion County, Indiana, United States of America) using the manufacture's protocol (500 μM final reverse transcriptase reaction amount). […] DMSO concentrations were kept the same for all dilutions used within an assay (0.05%). Final compound concentrations ranged from 5000 nM-0.05 nM with 2-fold serial dilutions. 96-well plates were set up with 20 μL compound dilution, 20 μL reverse transcriptase, and 20 μL template/nucleotides and incubated at 37° C. 5% CO2 for 1 hr in a reaction plate. 50 μL of each reaction was then transferred to a streptavidin conjugated 96-well plate and an ELISA assay was run based on manufacture's protocol. All compounds were tested in sextuplicate, with single wells of efavirenz dilutions on each plate.

[5] = Human immunodeficiency virus 1, IIIB, TZM-bl, read-out: IC50 (TZM, A17), Table 3, TZM-bl, ± SEM, minimum 6 replicates
[6] = Human immunodeficiency virus 1, IIIB, TZM-bl, read-out: IC50 (TZM, A17), Table 4, TZM-bl

Row | SMILES | solubility at 4 h (Kinetic solubility; 20 °C, kinetic from dmso stock) | Mouse liver microsomes, stability in words [1] | half-life at 1 μM ([1]; mouse, liver microsomes) | microsomal CLint at 1 μM ([1]; mouse, liver microsomes) | Human liver microsomes, stability in words [2] | half-life at 1 μM ([2]; human, liver microsomes) | microsomal CLint at 1 μM ([2]; human, liver microsomes) | half-life at 5 μM (in vitro; mouse, plasma) | fraction unbound (in vitro; mouse, plasma, pH 7.4, 5 μM, dialysis 5 hours, read-out: Mouse plasma protein binding) | activity against the A17 variant, in words [3] | IC50 [3, 5] | IC50 [3, 6] | EC50 ([3]; Human immunodeficiency virus 1, IIIB, TZM-bl, read-out: activity against the A17 double mutant (Y181C/K103N), EC50) | EC50 [4] | IC50 [4] | disparity between the IC50s for in-cell (TZM-bl) and reverse transcriptase HIV I inhibition [4] | solubility at 4 h (Kinetic solubility) | Mouse liver microsomes CLint ([1]; mouse, liver microsomes, 1 μM) | Human liver microsomes CLint ([2]; human, liver microsomes, 1 μM) | Mouse plasma protein binding (in vitro; 5 μM, dialysis 5 hours)
1 | N#C/C=C/c1ccc2c(S(=O)(=O)n3nc(Nc4ccc(C#N)c(Cl)c4)nc3N)cccc2c1 [Compound 20, 4-[[5-amino-1-[[6-[2-cyanovinyl]-1-naphthyl]sulfonyl]-1,2,4-triazol-3-yl]amino]-2-chloro-benzonitrile] | < 0.2 µM | stable | 2.07 h | 11.1 µL/min/mg | stable | 0.897 h | 25.8 µL/min/mg | > 6.21 h | < 0.001 | retained potent activity | 0.689 ± 0.143 nM | 45.4 nM | 1.86 nM | 4060 nM | 1350 nM | 1000 fold | – | – | – | –
2 | Nc1nc(Nc2ccc(Cl)cc2)nn1S(=O)(=O)c1ccc2ccccc2c1 [Compound 1, N3-(4-chlorophenyl)-1-(2-naphthylsulfonyl)-1,2,4-triazole-3,5-diamine] | – | protein, stable | – | – | protein, stable | – | – | – | – | – | > 1000 nM | > 1000 nM | – | 4840 nM | – | – | <0.2 µM | 10.4 μL/min/mg protein | 2.0 μL/min/mg protein | >99.9%
